{"source": "ChEMBL document CHEMBL1201862", "about": "“PubChem BioAssay data set” (2004)", "assay_in_all_cases": "growth of human tumour cells (NCI), 48 h", "key": {"SW-620": {"tested_on": "SW-620"}, "SF-295": {"tested_on": "SF-295"}, "ACHN": {"tested_on": "ACHN"}, "SNB-19": {"tested_on": "SNB-19"}, "HCT-15": {"tested_on": "HCT-15"}, "SNB-75": {"tested_on": "SNB-75"}, "NCI-H460": {"tested_on": "NCI-H460"}, "HCT-116": {"tested_on": "HCT-116"}, "HCC 2998": {"tested_on": "HCC 2998"}, "SF-539": {"tested_on": "SF-539"}, "CAKI-1": {"tested_on": "CAKI-1"}, "A498": {"tested_on": "A498"}, "UO-31": {"tested_on": "UO-31"}, "SN12C": {"tested_on": "SN12C"}, "SK-MEL-5": {"tested_on": "SK-MEL-5"}, "HOP-62": {"tested_on": "HOP-62"}}, "note": "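Assay format: 96-well plates, 48-hour exposure. At the GI50, growth is halved.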 Calls of active or inactive are those of the source. No stated cut-off is given here; in the data, active = GI50 up to about 1.1 µM and inactive = higher."}
{"smiles": "O=S(O)CCCCSSCCCCSSCCCCS(=O)O", "values": [{"measurement": "GI50", "setting": "SW-620", "result": "24.4 µM (inactive)"}, {"measurement": "GI50", "setting": "SF-295", "result": "30.1 µM (inactive)"}, {"measurement": "GI50", "setting": "ACHN", "result": "40.9 µM (inactive)"}, {"measurement": "GI50", "setting": "SNB-19", "result": "> 100 µM (inactive)"}, {"measurement": "GI50", "setting": "HCT-15", "result": 42.7, "unit": "µM"}, {"measurement": "GI50", "setting": "SNB-75", "result": "6.31 µM (inactive)"}, {"measurement": "GI50", "setting": "NCI-H460", "result": "53.1 µM (inactive)"}, {"measurement": "GI50", "setting": "HCT-116", "result": "> 100 µM (inactive)"}, {"measurement": "GI50", "setting": "HCC 2998", "result": "> 100 µM (inactive)"}, {"measurement": "GI50", "setting": "SF-539", "result": "66.2 µM (inactive)"}, {"measurement": "GI50", "setting": "CAKI-1", "result": "95.3 µM (inactive)"}, {"measurement": "GI50", "setting": "A498", "result": "96.6 µM (inactive)"}, {"measurement": "GI50", "setting": "UO-31", "result": "29 µM (inactive)"}, {"measurement": "GI50", "setting": "SN12C", "result": "42.7 µM (inactive)"}, {"measurement": "GI50", "setting": "SK-MEL-5", "result": "10.7 µM (inactive)"}]}
{"smiles": "Nc1nc2c(-c3ccc([N+](=O)[O-])cc3)nnn2c2ccccc12", "values": [{"measurement": "GI50", "setting": "SW-620", "result": "> 100 µM (inactive)"}, {"measurement": "GI50", "setting": "SF-295", "result": "62.1 µM (inactive)"}, {"measurement": "GI50", "setting": "ACHN", "result": "> 100 µM (inactive)"}, {"measurement": "GI50", "setting": "SNB-19", "result": "17.5 µM (inactive)"}, {"measurement": "GI50", "setting": "HCT-15", "result": "> 100", "unit": "µM"}, {"measurement": "GI50", "setting": "SNB-75", "result": "> 10 µM (inactive)"}, {"measurement": "GI50", "setting": "NCI-H460", "result": "> 100 µM (inactive)"}, {"measurement": "GI50", "setting": "HCC 2998", "result": "> 100 µM (inactive)"}, {"measurement": "GI50", "setting": "SF-539", "result": "> 100 µM (inactive)"}, {"measurement": "GI50", "setting": "CAKI-1", "result": "> 100 µM (inactive)"}, {"measurement": "GI50", "setting": "HOP-62", "result": "56.5 µM (inactive)"}, {"measurement": "GI50", "setting": "A498", "result": "> 100 µM (inactive)"}, {"measurement": "GI50", "setting": "UO-31", "result": "> 100 µM (inactive)"}, {"measurement": "GI50", "setting": "SN12C", "result": "> 100 µM (inactive)"}]}
{"smiles": "COC1OC(CO)C(O)C(OC(C)=O)C1NC(=O)N(CCCl)N=O", "note": "(stereo unspecified)", "values": [{"measurement": "GI50", "setting": "SW-620", "result": "> 100 µM (inactive)"}, {"measurement": "GI50", "setting": "SF-295", "result": "42.7 µM (inactive)"}, {"measurement": "GI50", "setting": "ACHN", "result": "> 100 µM (inactive)"}, {"measurement": "GI50", "setting": "SNB-19", "result": "> 100 µM (inactive)"}, {"measurement": "GI50", "setting": "SNB-75", "result": "46 µM (inactive)"}, {"measurement": "GI50", "setting": "NCI-H460", "result": "83.6 µM (inactive)"}, {"measurement": "GI50", "setting": "HCT-116", "result": "> 100 µM (inactive)"}, {"measurement": "GI50", "setting": "HCC 2998", "result": "> 100 µM (inactive)"}, {"measurement": "GI50", "setting": "SF-539", "result": "34.3 µM (inactive)"}, {"measurement": "GI50", "setting": "CAKI-1", "result": "> 100 µM (inactive)"}, {"measurement": "GI50", "setting": "A498", "result": "> 100 µM (inactive)"}, {"measurement": "GI50", "setting": "SN12C", "result": "> 100 µM (inactive)"}, {"measurement": "GI50", "setting": "SK-MEL-5", "result": "> 100 µM (inactive)"}]}
{"smiles": "COc1ccc2ccccc2c1C1OC(=O)c2ccccc21", "note": "(stereo unspecified)", "values": [{"measurement": "GI50", "setting": "SW-620", "result": "87.9 µM (inactive)"}, {"measurement": "GI50", "setting": "SF-295", "result": "56.2 µM (inactive)"}, {"measurement": "GI50", "setting": "ACHN", "result": "> 100 µM (inactive)"}, {"measurement": "GI50", "setting": "SNB-19", "result": "> 100 µM (inactive)"}, {"measurement": "GI50", "setting": "HCT-15", "result": "> 100", "unit": "µM"}, {"measurement": "GI50", "setting": "HCC 2998", "result": "> 100 µM (inactive)"}, {"measurement": "GI50", "setting": "SF-539", "result": "> 100 µM (inactive)"}, {"measurement": "GI50", "setting": "CAKI-1", "result": "> 100 µM (inactive)"}, {"measurement": "GI50", "setting": "HOP-62", "result": "> 100 µM (inactive)"}, {"measurement": "GI50", "setting": "A498", "result": "> 100 µM (inactive)"}, {"measurement": "GI50", "setting": "UO-31", "result": "68.2 µM (inactive)"}, {"measurement": "GI50", "setting": "SN12C", "result": "> 100 µM (inactive)"}, {"measurement": "GI50", "setting": "SK-MEL-5", "result": "> 100 µM (inactive)"}]}
{"smiles": "C=C(/C=C/C=C(\\CO)CCC=C(C)C)[C@H]1CCC2([C@H](CCCO)/C(=C(/C)C=O)CC[C@]2(C)O)[C@H]1O", "note": "(stereo partly specified)", "values": [{"measurement": "GI50", "setting": "SW-620", "result": "> 100 µM (inactive)"}, {"measurement": "GI50", "setting": "SF-295", "result": "21.2 µM (inactive)"}, {"measurement": "GI50", "setting": "ACHN", "result": "> 100 µM (inactive)"}, {"measurement": "GI50", "setting": "SNB-19", "result": "> 100 µM (inactive)"}, {"measurement": "GI50", "setting": "HCT-15", "result": "> 100", "unit": "µM"}, {"measurement": "GI50", "setting": "SNB-75", "result": "58.6 µM (inactive)"}, {"measurement": "GI50", "setting": "NCI-H460", "result": "56.8 µM (inactive)"}, {"measurement": "GI50", "setting": "HCT-116", "result": "> 100 µM (inactive)"}, {"measurement": "GI50", "setting": "HCC 2998", "result": "> 100 µM (inactive)"}, {"measurement": "GI50", "setting": "SF-539", "result": "83.4 µM (inactive)"}, {"measurement": "GI50", "setting": "CAKI-1", "result": "> 100 µM (inactive)"}, {"measurement": "GI50", "setting": "HOP-62", "result": "75.9 µM (inactive)"}, {"measurement": "GI50", "setting": "A498", "result": "> 100 µM (inactive)"}, {"measurement": "GI50", "setting": "SK-MEL-5", "result": "> 100 µM (inactive)"}]}
{"smiles": "Cc1cccc(NC(=O)/C(=N\\NC(C)(C)C)C2NC(=S)NC2=O)c1C", "note": "(stereo unspecified)", "values": [{"measurement": "GI50", "setting": "SW-620", "result": "> 100 µM (inactive)"}, {"measurement": "GI50", "setting": "SF-295", "result": "> 100 µM (inactive)"}, {"measurement": "GI50", "setting": "ACHN", "result": "> 100 µM (inactive)"}, {"measurement": "GI50", "setting": "SNB-19", "result": "> 100 µM (inactive)"}, {"measurement": "GI50", "setting": "HCT-15", "result": "> 100", "unit": "µM"}, {"measurement": "GI50", "setting": "NCI-H460", "result": "> 100 µM (inactive)"}, {"measurement": "GI50", "setting": "HCT-116", "result": "> 100 µM (inactive)"}, {"measurement": "GI50", "setting": "HCC 2998", "result": "> 100 µM (inactive)"}, {"measurement": "GI50", "setting": "SF-539", "result": "> 100 µM (inactive)"}, {"measurement": "GI50", "setting": "CAKI-1", "result": "15.4 µM (inactive)"}, {"measurement": "GI50", "setting": "HOP-62", "result": "> 100 µM (inactive)"}, {"measurement": "GI50", "setting": "A498", "result": "> 100 µM (inactive)"}, {"measurement": "GI50", "setting": "UO-31", "result": "> 100 µM (inactive)"}, {"measurement": "GI50", "setting": "SK-MEL-5", "result": "> 100 µM (inactive)"}]}
{"smiles": "C[C@]12CCC(=O)C=C1CC[C@@H]1C2CC[C@]2(C)c3nn(-c4ccccc4)nc3CC12", "note": "(stereo partly specified)", "values": [{"measurement": "GI50", "setting": "SW-620", "result": "> 100 µM (inactive)"}, {"measurement": "GI50", "setting": "SF-295", "result": "> 100 µM (inactive)"}, {"measurement": "GI50", "setting": "ACHN", "result": "> 100 µM (inactive)"}, {"measurement": "GI50", "setting": "SNB-19", "result": "> 100 µM (inactive)"}, {"measurement": "GI50", "setting": "HCT-15", "result": "> 100", "unit": "µM"}, {"measurement": "GI50", "setting": "SNB-75", "result": "> 100 µM (inactive)"}, {"measurement": "GI50", "setting": "NCI-H460", "result": "> 100 µM (inactive)"}, {"measurement": "GI50", "setting": "HCT-116", "result": "> 100 µM (inactive)"}, {"measurement": "GI50", "setting": "HCC 2998", "result": "> 100 µM (inactive)"}, {"measurement": "GI50", "setting": "SF-539", "result": "> 100 µM (inactive)"}, {"measurement": "GI50", "setting": "HOP-62", "result": "> 100 µM (inactive)"}, {"measurement": "GI50", "setting": "A498", "result": "> 100 µM (inactive)"}, {"measurement": "GI50", "setting": "UO-31", "result": "> 100 µM (inactive)"}, {"measurement": "GI50", "setting": "SN12C", "result": "> 100 µM (inactive)"}, {"measurement": "GI50", "setting": "SK-MEL-5", "result": "> 100 µM (inactive)"}]}
{"smiles": "N/C=N/S(=O)(=O)c1ccc(NC(=O)COC(=O)c2cccc3c(=O)c4ccccc4[nH]c23)cc1", "values": [{"measurement": "GI50", "setting": "SW-620", "result": "> 100 µM (inactive)"}, {"measurement": "GI50", "setting": "SF-295", "result": "> 100 µM (inactive)"}, {"measurement": "GI50", "setting": "ACHN", "result": "> 100 µM (inactive)"}, {"measurement": "GI50", "setting": "SNB-19", "result": "> 100 µM (inactive)"}, {"measurement": "GI50", "setting": "HCT-15", "result": "> 100", "unit": "µM"}, {"measurement": "GI50", "setting": "SNB-75", "result": "> 100 µM (inactive)"}, {"measurement": "GI50", "setting": "NCI-H460", "result": "> 100 µM (inactive)"}, {"measurement": "GI50", "setting": "HCT-116", "result": "> 100 µM (inactive)"}, {"measurement": "GI50", "setting": "SF-539", "result": "> 100 µM (inactive)"}, {"measurement": "GI50", "setting": "HOP-62", "result": "> 100 µM (inactive)"}, {"measurement": "GI50", "setting": "UO-31", "result": "> 100 µM (inactive)"}, {"measurement": "GI50", "setting": "SN12C", "result": "> 100 µM (inactive)"}, {"measurement": "GI50", "setting": "SK-MEL-5", "result": "> 100 µM (inactive)"}]}
